Measurements reported in patent EP0908457B1, “3-(1,2-benzisothiazol- and isoxazol-5-Y1)-2,4(1H,3H)-pyrimidinedione or thione and 3-(1,2-benzisothiazol- and isoxazol-5-y1)-4(3H)-pyrimidinone or thione herbicidal agents” (BASF AKTIENGESELLSCHAFT, priority 1997, dated 1999).

How the values were obtained:
[1] = system: Echinochloa oryzoides (Ard.) Fritsch.; assay: Preemergence weed control under flooded paddy conditions, ECHORC (Watergrass (Calif.)); format: in vivo; settings: flooded paddy; for herbicidal effect rating, ECHORC: preemergence, rated three to four weeks after treatment; for ECHORC: preemergence weeds, herbicidal effect rating 0-9, three to four weeks after treatment; as to herbicidal effect rating, ECHORC: meaning of each grade not given here
Cyperus iria [2] = assay: Preemergence weed control under flooded paddy conditions, CYPIR (Rice Flatsedge); format: in vivo; settings: flooded paddy; for herbicidal effect rating, CYPIR: preemergence, rated three to four weeks after treatment; for CYPIR: preemergence weeds, herbicidal effect rating 0-9, three to four weeks after treatment; as to herbicidal effect rating, CYPIR: meaning of each grade not given here
[3] = system: Cyperus serotinus, Rottb.; assay: Preemergence weed control under flooded paddy conditions, CYPSE (Flatsedge); format: in vivo; settings: for herbicidal effect rating, CYPSE: preemergence, rated three to four weeks after treatment; for CYPSE: preemergence weeds, herbicidal effect rating 0-9, three to four weeks after treatment; as to herbicidal effect rating, CYPSE: meaning of each grade not given here
[4] = system: Monochoria vaginalis, Presl.; assay: Preemergence weed control under flooded paddy conditions, MOOVA (Monochoria); format: in vivo; settings: flooded paddy; for herbicidal effect rating, MOOVA: preemergence, rated three to four weeks after treatment; for MOOVA: preemergence weeds, herbicidal effect rating 0-9, three to four weeks after treatment; as to herbicidal effect rating, MOOVA: meaning of each grade not given here
Sagittaria pygmaea, L. [5] = assay: Preemergence weed control under flooded paddy conditions, SAGPY (Arrowhead (Pygmaea)); format: in vivo; settings: flooded paddy; for herbicidal effect rating, SAGPY: preemergence, rated three to four weeks after treatment; for SAGPY: preemergence weeds, herbicidal effect rating 0-9, three to four weeks after treatment; as to herbicidal effect rating, SAGPY: meaning of each grade not given here
[6] = system: Echinochloa oryzoides (Ard.) Fritsch.; assay: Postemergence weed control under flooded paddy conditions, ECHORC (Watergrass (Calif.)); format: in vivo; settings: rated three to four weeks after treatment
Cyperus iria [7] = assay: Postemergence weed control under flooded paddy conditions, CYPIR (Rice Flatsedge); format: in vivo; settings: rated three to four weeks after treatment
[8] = system: Cyperus serotinus, Rottb.; assay: Postemergence weed control under flooded paddy conditions, CYPSE (Flatsedge); format: in vivo; settings: rated three to four weeks after treatment
[9] = system: Monochoria vaginalis, Presl.; assay: Postemergence weed control under flooded paddy conditions, MOOVA (Monochoria); format: in vivo; settings: rated three to four weeks after treatment
Sagittaria pygmaea, L. [10] = assay: Postemergence weed control under flooded paddy conditions, SAGPY (Arrowhead (Pygmaea)); format: in vivo; settings: rated three to four weeks after treatment
[11] = system: Oryza sativa, (L.) Tebonnet; assay: Rice tolerance to post-transplant applications under flooded paddy conditions (Example 187), ORYSAT (Rice, Tebonnet); settings: for herbicidal effect rating, ORYSAT (rice tolerance): rated three to four weeks after treatment; for ORYSAT: herbicidal effect rating 0-9, three to four weeks after treatment
[12] = system: Oryza sativa, (L.) Tebonnet; assay: Rice tolerance to post-transplant applications under flooded paddy conditions (Example 188), ORYSAT (Rice, Tebonnet); settings: rated three to four weeks after treatment

Cc1cc(O)c(-c2nsc3ccc(-n4c(=O)cc(C(F)(F)F)n(C)c4=O)cc23)cc1C [Example 11, 3-[3-(6-Hydroxy-3,4-xylyl)-1,2-benzisothiazol-5-yl]-1-methyl-6-(trifluoromethyl)-2,4(1H,3H)-pyrimidinedione]
herbicidal effect rating, ECHORC ([1]; 0.0625 kg/ha): 7.0
herbicidal effect rating, ECHORC ([1]; 0.1250 kg/ha): 8.0
herbicidal effect rating, ECHORC ([1]; 0.2500 kg/ha): 8.0
herbicidal effect rating, ECHORC ([1]; 0.5000 kg/ha): 9.0
herbicidal effect rating, CYPIR (Cyperus iria [2]; 0.0625 kg/ha): 9.0
herbicidal effect rating, CYPIR (Cyperus iria [2]; 0.1250 kg/ha): 9.0
herbicidal effect rating, CYPIR (Cyperus iria [2]; 0.2500 kg/ha): 9.0
herbicidal effect rating, CYPIR (Cyperus iria [2]; 0.5000 kg/ha): 9.0
herbicidal effect rating, CYPSE ([3]; 0.0625 kg/ha): 2.0
herbicidal effect rating, CYPSE ([3]; 0.1250 kg/ha): 2.0
herbicidal effect rating, CYPSE ([3]; 0.2500 kg/ha): 2.0
herbicidal effect rating, CYPSE ([3]; 0.5000 kg/ha): 7.0
herbicidal effect rating, MOOVA ([4]; 0.0625 kg/ha): 9.0
herbicidal effect rating, MOOVA ([4]; 0.1250 kg/ha): 9.0
herbicidal effect rating, MOOVA ([4]; 0.2500 kg/ha): 9.0
herbicidal effect rating, MOOVA ([4]; 0.5000 kg/ha): 9.0
herbicidal effect rating, SAGPY (Sagittaria pygmaea, L. [5]; 0.0625 kg/ha): 0.0
herbicidal effect rating, SAGPY (Sagittaria pygmaea, L. [5]; 0.1250 kg/ha): 0.0
herbicidal effect rating, SAGPY (Sagittaria pygmaea, L. [5]; 0.2500 kg/ha): 2.0
herbicidal effect rating, SAGPY (Sagittaria pygmaea, L. [5]; 0.5000 kg/ha): 9.0
herbicidal effect rating, ECHORC ([6]; Rate 0.0313 kg/ha): 0.0
herbicidal effect rating, ECHORC ([6]; Rate 0.0625 kg/ha): 0.0
herbicidal effect rating, ECHORC ([6]; Rate 0.1250 kg/ha): 2.0
herbicidal effect rating, ECHORC ([6]; Rate 0.2500 kg/ha): 4.0
herbicidal effect rating, ECHORC ([6]; Rate 0.5000 kg/ha): 7.0
herbicidal effect rating, CYPIR (Cyperus iria [7]; Rate 0.0313 kg/ha): 8.0
herbicidal effect rating, CYPIR (Cyperus iria [7]; Rate 0.0625 kg/ha): 9.0
herbicidal effect rating, CYPIR (Cyperus iria [7]; Rate 0.1250 kg/ha): 9.0
herbicidal effect rating, CYPIR (Cyperus iria [7]; Rate 0.2500 kg/ha): 9.0
herbicidal effect rating, CYPIR (Cyperus iria [7]; Rate 0.5000 kg/ha): 9.0
herbicidal effect rating, CYPSE ([8]; Rate 0.0313 kg/ha): 0.0
herbicidal effect rating, CYPSE ([8]; Rate 0.0625 kg/ha): 0.0
herbicidal effect rating, CYPSE ([8]; Rate 0.1250 kg/ha): 0.0
herbicidal effect rating, CYPSE ([8]; Rate 0.2500 kg/ha): 0.0
herbicidal effect rating, CYPSE ([8]; Rate 0.5000 kg/ha): 0.0
herbicidal effect rating, MOOVA ([9]; Rate 0.0313 kg/ha): 9.0
herbicidal effect rating, MOOVA ([9]; Rate 0.0625 kg/ha): 9.0
herbicidal effect rating, MOOVA ([9]; Rate 0.1250 kg/ha): 9.0
herbicidal effect rating, MOOVA ([9]; Rate 0.2500 kg/ha): 9.0
herbicidal effect rating, MOOVA ([9]; Rate 0.5000 kg/ha): 9.0
herbicidal effect rating, SAGPY (Sagittaria pygmaea, L. [10]; Rate 0.0313 kg/ha): 0.0
herbicidal effect rating, SAGPY (Sagittaria pygmaea, L. [10]; Rate 0.0625 kg/ha): 0.0
herbicidal effect rating, SAGPY (Sagittaria pygmaea, L. [10]; Rate 0.1250 kg/ha): 0.0
herbicidal effect rating, SAGPY (Sagittaria pygmaea, L. [10]; Rate 0.2500 kg/ha): 4.0
herbicidal effect rating, SAGPY (Sagittaria pygmaea, L. [10]; Rate 0.5000 kg/ha): 7.0
herbicidal effect rating, ORYSAT (rice tolerance) ([11]; 0.0625 kg/ha): 2.0
herbicidal effect rating, ORYSAT (rice tolerance) ([11]; 0.1250 kg/ha): 2.0
herbicidal effect rating, ORYSAT (rice tolerance) ([11]; 0.2500 kg/ha): 3.0
herbicidal effect rating, ORYSAT (rice tolerance) ([11]; 0.5000 kg/ha): 3.0
herbicidal effect rating, ORYSAT (rice tolerance) ([12]; Rate 0.0313 kg/ha): 0.0
herbicidal effect rating, ORYSAT (rice tolerance) ([12]; Rate 0.0625 kg/ha): 0.0
herbicidal effect rating, ORYSAT (rice tolerance) ([12]; Rate 0.1250 kg/ha): 0.0
herbicidal effect rating, ORYSAT (rice tolerance) ([12]; Rate 0.2500 kg/ha): 1.0
herbicidal effect rating, ORYSAT (rice tolerance) ([12]; Rate 0.5000 kg/ha): 1.0

CCCCC(=O)c1nsc2ccc(-n3c(=O)cc(C(F)(F)F)n(C)c3=O)cc12 [Example 431, 2,4(1H,3H)-Pyrimidinedione, 1-methyl-6-(trifluoromethyl)-3-(3-valeryl-1,2-benzisothiazol-5-yl)-]
ECHORC ([1]; 0.0320 kg/ha): 8.0
ECHORC ([1]; 0.0620 kg/ha): 9.0
ECHORC ([1]; 0.1250 kg/ha): 8.5
ECHORC ([1]; 0.2500 kg/ha): 9.0
CYPIR (Cyperus iria [2]; 0.0320 kg/ha): 8.0
CYPIR (Cyperus iria [2]; 0.0620 kg/ha): 9.0
CYPIR (Cyperus iria [2]; 0.1250 kg/ha): 9.0
CYPIR (Cyperus iria [2]; 0.2500 kg/ha): 9.0
CYPSE ([3]; 0.0320 kg/ha): 0.0
CYPSE ([3]; 0.0620 kg/ha): 4.0
CYPSE ([3]; 0.1250 kg/ha): 7.5
CYPSE ([3]; 0.2500 kg/ha): 9.0
MOOVA ([4]; 0.0320 kg/ha): 9.0
MOOVA ([4]; 0.0620 kg/ha): 9.0
MOOVA ([4]; 0.1250 kg/ha): 9.0
MOOVA ([4]; 0.2500 kg/ha): 9.0
SAGPY (Sagittaria pygmaea, L. [5]; 0.0320 kg/ha): 3.5
SAGPY (Sagittaria pygmaea, L. [5]; 0.0620 kg/ha): 5.5
SAGPY (Sagittaria pygmaea, L. [5]; 0.1250 kg/ha): 7.5
SAGPY (Sagittaria pygmaea, L. [5]; 0.2500 kg/ha): 9.0
herbicidal effect rating, ECHORC ([6]; Rate 0.0320 kg/ha): 7.0
herbicidal effect rating, ECHORC ([6]; Rate 0.0620 kg/ha): 9.0
herbicidal effect rating, ECHORC ([6]; Rate 0.1250 kg/ha): 9.0
herbicidal effect rating, ECHORC ([6]; Rate 0.2500 kg/ha): 9.0
herbicidal effect rating, CYPIR (Cyperus iria [7]; Rate 0.0320 kg/ha): 4.0
herbicidal effect rating, CYPIR (Cyperus iria [7]; Rate 0.0620 kg/ha): 7.0
herbicidal effect rating, CYPIR (Cyperus iria [7]; Rate 0.1250 kg/ha): 9.0
herbicidal effect rating, CYPIR (Cyperus iria [7]; Rate 0.2500 kg/ha): 9.0
herbicidal effect rating, CYPSE ([8]; Rate 0.0320 kg/ha): 0.0
herbicidal effect rating, CYPSE ([8]; Rate 0.0620 kg/ha): 0.0
herbicidal effect rating, CYPSE ([8]; Rate 0.1250 kg/ha): 0.0
herbicidal effect rating, CYPSE ([8]; Rate 0.2500 kg/ha): 4.0
herbicidal effect rating, MOOVA ([9]; Rate 0.0320 kg/ha): 6.0
herbicidal effect rating, MOOVA ([9]; Rate 0.0620 kg/ha): 9.0
herbicidal effect rating, MOOVA ([9]; Rate 0.1250 kg/ha): 9.0
herbicidal effect rating, MOOVA ([9]; Rate 0.2500 kg/ha): 9.0
herbicidal effect rating, SAGPY (Sagittaria pygmaea, L. [10]; Rate 0.0320 kg/ha): 0.0
herbicidal effect rating, SAGPY (Sagittaria pygmaea, L. [10]; Rate 0.0620 kg/ha): 0.0
herbicidal effect rating, SAGPY (Sagittaria pygmaea, L. [10]; Rate 0.1250 kg/ha): 0.0
herbicidal effect rating, SAGPY (Sagittaria pygmaea, L. [10]; Rate 0.2500 kg/ha): 4.0
ORYSAT ([11]; 0.0320 kg/ha): 3.5
ORYSAT ([11]; 0.0620 kg/ha): 5.5
ORYSAT ([11]; 0.1250 kg/ha): 5.0
ORYSAT ([11]; 0.2500 kg/ha): 6.5
herbicidal effect rating, ORYSAT (rice tolerance) ([12]; Rate 0.0320 kg/ha): 3.0
herbicidal effect rating, ORYSAT (rice tolerance) ([12]; Rate 0.0620 kg/ha): 3.0
herbicidal effect rating, ORYSAT (rice tolerance) ([12]; Rate 0.1250 kg/ha): 3.0
herbicidal effect rating, ORYSAT (rice tolerance) ([12]; Rate 0.2500 kg/ha): 7.0
